{"source": "paper PMC3513391", "about": "(Biochemistry, 2012)", "key": {"[1]": {"target": "T1, Homoprotocatechuate 2,3-dioxygenase (FeHPCD), Y257F variant (Brevibacterium fuscum, UniProt Q45135, Y257F)", "assay": "UV-vis spectral change on anaerobic binding"}, "[2]": {"target": "Homoprotocatechuate 2,3-dioxygenase (FeHPCD) (Brevibacterium fuscum, UniProt Q45135)", "assay": "competition with 4NC by UV-vis", "type": "binding"}, "[3]": {"target": "T1, Homoprotocatechuate 2,3-dioxygenase (FeHPCD), Y257F variant", "assay": "competition with 4NC by UV-vis", "type": "binding"}}, "note": "pKd: −log10 of the molar value.", "data": [{"smiles": "O=[N+]([O-])c1ccc(O)c(O)c1", "note": "[4NC, 4-nitrocatechol]", "values": [{"measurement": "pKd", "setting": "[1]", "value": "~5.30"}]}, {"smiles": "O=C(O)Cc1ccc(O)c(O)c1", "note": "[HPCA, homoprotocatechuate]", "values": [{"measurement": "pKd", "setting": "[2]", "value": "> 5.30"}, {"measurement": "pKd", "setting": "[3]", "value": "> 5.30"}]}]}
